Source: ChEMBL document CHEMBL4431301, “The Medicinal Chemistry of Dengue Virus” (J Med Chem, 2016)

Legend:
dengue virus type 2 [1] = assay: Antiviral activity against Dengue virus 2 NGC infected in african green monkey Vero cells assessed as inhibition of viral yield after 48 hrs; format: functional, organism-based
Junin virus = assay: Antiviral activity against Junin virus IV4454 infected in african green monkey Vero cells assessed as inhibition of viral yield after 48 hrs; format: functional, organism-based; conditions: Mammarenavirus juninense
dengue virus type 1 [2] = assay: Antiviral activity against Dengue virus 1 Hawaii infected in african green monkey Vero cells assessed as inhibition of viral yield after 48 hrs; format: functional, organism-based
dengue virus type 3 [3] = assay: Antiviral activity against Dengue virus 3 H87 infected in african green monkey Vero cells assessed as inhibition of viral yield after 48 hrs; format: functional, organism-based
dengue virus type 4 [4] = assay: Antiviral activity against Dengue virus 4 8124 infected in african green monkey Vero cells assessed as inhibition of viral yield after 48 hrs; format: functional, organism-based; conditions: Dengue virus, 8124, Vero
[5] = Inhibition of Dengue virus guanine N-7 methyltransferase using RNA substrate after 20 mins in presence of [methyl-3H]-AdoMet by microbeta counting analysis
Nonstructural protein 5 = Nonstructural protein 5 (Dengue virus, UniProt V5TFZ2); assay: Inhibition of Dengue virus ribose 2'-O methyltransferase using RNA substrate after 20 mins in presence of [methyl-3H]-AdoMet by microbeta counting analysis
dengue virus type 2 [6] = assay: Antiviral activity against Dengue virus 2 NGC infected in BHK21 cells after 48 hrs by plaque reduction assay; format: functional, organism-based; conditions: BHK-21, 48 h
dengue virus type 2 [7] = assay: Antiviral activity against Dengue virus 2 NGC infected in BHK21 cells after 24 hrs by plaque reduction assay; format: functional; conditions: BHK-21, 24 h
[8] = Cytotoxicity against BHK21 cells after 1 hr by alamar blue assay; format: cell-based, Mesocricetus auratus, BHK-21; conditions: hamster
dengue virus type 2 [9] = assay: Antiviral activity against Dengue virus 2 NGC infected in human HuH7 cells assessed as reduction in viral titer after 24 hrs; format: functional; conditions: Huh-7, 24 h
dengue virus type 2 [10] = assay: Antiviral activity against Dengue virus 2 NGC infected in human A549 cells assessed as reduction in virus replication after 48 hrs by renilla luciferase reporter gene assay; format: functional, organism-based; conditions: A549, 48 h
dengue virus type 2 [11] = assay: Antiviral activity against Dengue virus 2 NGC infected in human HuH7 cells assessed as reduction in virus replication after 48 hrs by renilla luciferase reporter gene assay; format: functional, organism-based; conditions: Huh-7, 48 h
[12] = Cytotoxicity against human HuH7 cells assessed as cell viability after 48 hrs by CellTiter Glo assay; format: cell-based, Huh-7
dengue virus type 2 [13] = assay: Antiviral activity against Dengue virus 2 NGC infected in human K562 cells assessed as inhibition in live viral replication after 48 hrs by plaque assay; format: functional, organism-based; conditions: K562, 48 h
Genome polyprotein [14] = target: T1, Genome polyprotein (dengue virus type 2, UniProt P29990); assay: Inhibition of Dengue virus 2 NS2B-NS3 protease using Abz-Nle-Lys-Arg-Arg-Ser-3-(NO2)Tyr as substrate preincubated for 15 mins followed by addition of substrate measured after 15 mins by fluorescence assay
Target sequence in this assay (P29990 1346-1475 limits assumed): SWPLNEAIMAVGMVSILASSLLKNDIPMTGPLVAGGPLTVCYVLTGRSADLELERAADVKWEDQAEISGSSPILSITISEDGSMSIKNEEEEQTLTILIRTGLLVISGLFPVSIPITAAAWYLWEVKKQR
Target sequence in this assay (P29990 1476-2093 limits assumed): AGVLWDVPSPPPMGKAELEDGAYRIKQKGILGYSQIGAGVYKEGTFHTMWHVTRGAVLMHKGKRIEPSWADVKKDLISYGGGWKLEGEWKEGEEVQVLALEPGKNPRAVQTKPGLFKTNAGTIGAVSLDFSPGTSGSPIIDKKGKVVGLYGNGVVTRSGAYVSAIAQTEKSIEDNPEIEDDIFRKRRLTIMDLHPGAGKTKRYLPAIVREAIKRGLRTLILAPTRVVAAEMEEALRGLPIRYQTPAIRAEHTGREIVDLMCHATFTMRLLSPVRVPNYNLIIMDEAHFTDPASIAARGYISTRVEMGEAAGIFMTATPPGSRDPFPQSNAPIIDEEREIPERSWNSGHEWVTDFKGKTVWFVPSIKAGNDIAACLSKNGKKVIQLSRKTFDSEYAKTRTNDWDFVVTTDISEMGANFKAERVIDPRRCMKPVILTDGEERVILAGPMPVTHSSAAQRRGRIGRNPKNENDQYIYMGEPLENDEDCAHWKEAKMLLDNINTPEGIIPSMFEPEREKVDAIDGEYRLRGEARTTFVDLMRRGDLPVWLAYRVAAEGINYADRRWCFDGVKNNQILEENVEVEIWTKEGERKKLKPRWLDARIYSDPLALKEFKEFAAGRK

[15] = Binding affinity to His-tagged Dengue virus 3 methyltransferase expressed in Escherichia coli Rosetta 2(DE3) by VP-ITC isothermal titration calorimetry; set-up: species or system dengue virus type 3
Genome polyprotein [16] = target: T1, Genome polyprotein; assay: Inhibition of RNA unwinding activity of thioredoxin/His6 tagged Dengue virus 2 TSV01 NS3 helicase (171 to 618 residues) expressed in Escherichia coli Rosetta (DE3) using Cy5-MBHA as substrate by fluorescence assay
Target sequence in this assay (P29990 1476-2093 limits assumed): as above

Genome polyprotein [17] = target: T1, Genome polyprotein; assay: Inhibition of Dengue virus 2 NS3 helicase incubated for 2 mins followed by ATP addition
Target sequence in this assay (P29990 1476-2093 limits assumed): as above

dengue virus type 2 [18] = assay: Antiviral activity against Dengue virus 2 infected in BHK21 cells assessed as reduction in virus replication after 72 hrs by renilla luciferase reporter gene assay; format: functional, organism-based; conditions: BHK-21, 72 h
dengue virus type 2 [19] = assay: Antiviral activity against Dengue virus 2 assessed as inhibition of viral replication; format: functional, organism-based
dengue virus type 1 [20] = assay: Antiviral activity against Dengue virus 1 TH-Sman VR-344 infected in african green monkey Vero cells assessed as reduction in viral titer after 48 hrs by plaque assay; format: functional, organism-based; conditions: TH-Sman VR-344, Vero
dengue virus type 3 [21] = assay: Antiviral activity against Dengue virus 3 H87 VR-1256 infected in african green monkey Vero cells assessed as reduction in viral titer after 48 hrs by plaque assay; format: functional, organism-based; conditions: H87 VR-1256, Vero
dengue virus type 4 [22] = assay: Antiviral activity against Dengue virus 4 H241 VR-1257 infected in african green monkey Vero cells assessed as reduction in viral titer after 48 hrs by plaque assay; format: functional, organism-based; conditions: H241 VR-1257, Vero
dengue virus type 2 [23] = assay: Antiviral activity against Dengue virus 2 NGC VR-1255 infected in african green monkey Vero cells assessed as reduction in viral titer after 48 hrs by plaque assay; format: functional, organism-based; conditions: NGC VR-1255, Vero

Chain of Nonstructural protein 5 (V5TFZ2 whole entry): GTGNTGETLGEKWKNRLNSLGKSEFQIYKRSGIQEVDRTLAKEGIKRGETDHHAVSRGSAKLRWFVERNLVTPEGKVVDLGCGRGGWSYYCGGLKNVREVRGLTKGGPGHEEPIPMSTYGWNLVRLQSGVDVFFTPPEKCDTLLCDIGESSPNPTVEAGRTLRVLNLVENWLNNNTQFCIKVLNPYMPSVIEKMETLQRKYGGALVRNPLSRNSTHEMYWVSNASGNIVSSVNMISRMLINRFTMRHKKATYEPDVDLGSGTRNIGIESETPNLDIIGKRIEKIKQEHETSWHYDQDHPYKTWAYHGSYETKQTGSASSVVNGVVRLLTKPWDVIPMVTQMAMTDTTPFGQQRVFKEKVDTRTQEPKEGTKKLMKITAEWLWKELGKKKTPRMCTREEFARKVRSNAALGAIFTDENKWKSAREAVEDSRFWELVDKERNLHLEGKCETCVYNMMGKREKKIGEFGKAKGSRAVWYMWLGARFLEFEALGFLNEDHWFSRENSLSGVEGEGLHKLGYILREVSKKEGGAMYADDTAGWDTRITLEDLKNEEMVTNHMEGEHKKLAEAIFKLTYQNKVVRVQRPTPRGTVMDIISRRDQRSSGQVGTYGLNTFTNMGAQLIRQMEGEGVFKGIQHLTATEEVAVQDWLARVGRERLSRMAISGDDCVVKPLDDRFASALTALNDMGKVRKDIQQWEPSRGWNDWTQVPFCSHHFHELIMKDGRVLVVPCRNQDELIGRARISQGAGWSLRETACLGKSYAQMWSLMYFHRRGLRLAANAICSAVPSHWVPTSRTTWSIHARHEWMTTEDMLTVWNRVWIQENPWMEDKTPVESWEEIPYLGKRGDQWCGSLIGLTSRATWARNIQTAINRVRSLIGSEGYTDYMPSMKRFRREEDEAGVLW

## C=CCn1c2cc(Cl)ccc2c(=O)c2cccc(OC)c21
Dengue virus type 2 [1]
  EC50: 2.5 to 5.5 µM
Junin virus
  EC50: 2.5 to 5.5 µM
Dengue virus type 1 [2]
  EC50: 8.3 to 15.9 µM
Dengue virus type 3 [3]
  EC50: 8.3 to 15.9 µM
Dengue virus type 4 [4]
  EC50: 19.9 µM

## Nc1ncnc2c1ncn2[C@@H]1O[C@H](CSCC[C@H](N)C(=O)O)[C@@H](O)[C@H]1O [S-ADENOSYLHOMOCYSTEINE]
[5]
  IC50: 1770 nM
Nonstructural protein 5
  IC50: 490 nM

## OC[C@@H]1[C@@H](O)[C@H](O)[C@@H](O)CN1CCCCC1CCCCC1
Dengue virus type 2 [6]
  EC50: 1500 nM

## N#C/C(=N\Nc1ccc(C(F)(F)F)cc1)C(=O)c1ccco1
Dengue virus type 2 [7]
  IC90: 1500 nM
[8]
  CC50 at 1 h: 84.5 µM

## OC[C@@H]1[C@@H](O)[C@H](O)[C@@H](O)CN1CCCCCC1(O)CCCCC1
Dengue virus type 2 [6]
  EC50: 2000 nM

## Cc1nc(Nc2ncc(C(=O)Nc3c(C)cccc3Cl)s2)cc(N2CCN(CCO)CC2)n1 [DASATINIB]
Dengue virus type 2 [9]
  EC90: 4.7 µM

## CC[C@H](C)C(=O)O[C@H]1CCC=C2C=C[C@H](C)[C@H](CC[C@@H]3C[C@@H](O)CC(=O)O3)[C@H]21 [MEVASTATIN]
Dengue virus type 2 [10]
  EC50: 1.82 to 8.75 µM

## CCN(CC)CCO[C@H]1CC[C@@]2(C)C(=CC[C@@H]3[C@@H]2CC[C@]2(C)C(=O)CC[C@@H]32)C1
Dengue virus type 2 [11]
  EC50: 2900 nM
[12]
  CC50 at 48 h: 34.4 µM

## C=C(CC[C@]12O[C@H](C(=O)O)[C@@](O)(C(=O)O)[C@](C(=O)O)(O1)[C@H](OC(=O)/C=C/[C@@H](C)C[C@@H](C)CC)[C@H]2O)[C@@H](OC(C)=O)[C@H](C)Cc1ccccc1 [ZARAGOZIC ACIDS A]
Dengue virus type 2 [13]
  EC50: 8.3 µM

## C=CCn1c2ccccc2c(=O)c2ccc(Cl)cc21
Dengue virus type 2 [1]
  EC50: 2.5 to 5.5 µM
Junin virus
  EC50: 2.5 to 5.5 µM
Dengue virus type 1 [2]
  EC50: 8.3 to 15.9 µM
Dengue virus type 3 [3]
  EC50: 8.3 to 15.9 µM

## CCCC[C@H](NC(=O)[C@H](CCCCN)NC(=O)[C@H](CCCNC(=N)N)NC(=O)c1ccc(/C=C(\C#N)C(=O)NC2CC2)cc1)C(N)=O
Genome polyprotein [14]
  Ki: 4.9 µM

## C[S+](CC[C@H](N)C(=O)[O-])C[C@H]1O[C@@H](n2cnc3c(N)ncnc32)[C@H](O)[C@@H]1O (some centres not stated) [ADEMETIONINE]
[15]
  Kd: 826 nM

## Cc1ccc2nc(-c3ccc4nc(-c5ccc(NC(=O)c6ccc7nc(-c8ccc(N)cc8)sc7c6)cc5)sc4c3)sc2c1S(=O)(=O)O
Genome polyprotein [16]
  IC50: 1500 nM
Genome polyprotein [17]
  IC50: 500 nM
Dengue virus type 2 [18]
  EC50: 7.1 µM

## CC(=C\C(=O)O)/C=C(\C)C[C@H](C)CCCC[C@H]1OC(=O)[C@@H]1CO [ANTIBIOTIC 1233A]
Dengue virus type 2 [13]
  EC50: 4.5 µM

## CC(C)(C)OC(=O)NC1C(=O)NC2Cc3ccc(c(Cl)c3)Oc3cc4cc(c3O)Oc3ccc(cc3Cl)C(O)C3NC(=O)C(NC(=O)C4NC(=O)C(NC2=O)c2cc(O)cc(c2)Oc2cc1ccc2O)c1ccc(O)c(c1)-c1c(O)cc(O)cc1C(C(=O)NC12CC4CC(CC(C4)C1)C2)NC3=O (configuration not stated)
Dengue virus type 2 [19]
  EC50: 6.9 µM

## NC(=O)C1(N2CCCCC2)CCN(C(=O)CSc2nc3ccccc3o2)CC1
Dengue virus type 1 [20]
  EC50: 203 to 272 nM
Dengue virus type 3 [21]
  EC50: 203 to 272 nM
Dengue virus type 4 [22]
  EC50: 203 to 272 nM
Dengue virus type 2 [23]
  EC50: 203 to 272 nM

## CC[C@H](C)C(=O)O[C@H]1C[C@@H](C)C=C2C=C[C@H](C)[C@H](CC[C@@H]3C[C@@H](O)CC(=O)O3)[C@H]21 [LOVASTATIN]
Dengue virus type 2 [10]
  EC50: 1.82 to 8.75 µM
